In patent publication US8586591B2, “Aminopyrazine derivative and medicine” (Nippon Shinyaku Co., Ltd., priority 2009, dated 2013) one finds IC50 data, which are given here for 19 molecules.

In general, IC50 refers to the midpoint of a concentration-inhibition curve.

Structures can show the parent of a compound that is named as a salt.

One test deals with T1, JAK2 tyrosine kinase (Homo sapiens, UniProt O60674).
T1 construct: purchased Carnabioscience Co
Briefly: Test 1: inhibitory activity to JAK2 tyrosine kinase (ELISA). Type of test: biochemical. Conditions: 25 μM ATP in substrate solution, 30° C. for 1 hour, n=2. The protocol:
Test 1: Test for inhibitory activity to JAK2 and JAK3 tyrosine kinase 1. Preparation of Test Material
The test material was dissolved in dimethylsulfoxide (DMSO) to be 10 mM, and further diluted with DMSO to be 100-fold concentrations for measurement (1000, 300, 100, 30, 10, 3, 1, 0.3, 0.1, 0.03, 0.01 μM). In addition, solutions diluted with an assay buffer up to 20 times were used as solutions of the test material. As a negative control, a solution of DMSO diluted 20 times with an assay buffer was used. As the assay buffer, 15 mM Tris-Cl (pH 7.5), 0.01 v/v % Tween-20, and 1 mM dithiothreitol were used.
2. Measurement of the Activities of JAK2 and JAK3 Tyrosine Kinases
The activity was determined by ELISA. The solution of the test material (10 μl each; n=2) was placed in a streptavidine-coated 96 well plate (DELFIA Strip Plate 8×12 wells; Perkin Elmer), to which 20 μl each of substrate solution (625 nM biotin-labeled peptide substrate, 25 μM ATP, 25 mM MgCl2, 15 mM Tris-Cl (pH 7.5), 0.01 v/v % Tween-20, and 1 mM dithiothreitol), was added and stirred. Finally, 20 μl each of JAK2 tyrosine kinase (Carnabioscience Co.) (diluted to 0.75 nM with assay buffer) or JAK3 tyrosine kinase (Carnabioscience Co.) (diluted to 0.75 nM with assay buffer) was added, stirred and allowed to stand at 30° C. for 1 hour. The plate was washed 4 times with a washing buffer (50 mM Tris-Cl, pH 7.5, 150 mM NaCl, 0.02 v/v % Tween-20), and then a blocking buffer (0.1% Bovine Serum Albumin, 50 mM Tris-Cl, pH 7.5, 150 mM NaCl, 0.02 v/v % Tween-20)(150 μl each) was added for blocking at 30° C. for 30 minutes. Blocking buffer was removed, and there was added 100 μl each of horse radish peroxidase-labeled anti-phosphorylated tyrosin kinase antibody (BD Bioscience Co.) (diluted 10,000 times with blocking buffer). The plate was incubated at 30° C. for 30 minutes and then washed 4 times with a washing buffer, and 100 μl each of 3,3′,5,5′-tetramethylbenzidine (Sigma-Aldrich Co.) was added to develop color for 10 minutes. 0.1 M sulfuric acid (100 μl each) was added to stop the reaction. The absorbance was measured by means of a micro-plate reader (BIO-RAD; Model 3550) at 450 nm.
3. Analysis of the Results of the Measurement
The measured absorbance was subjected to a non-linear regression analysis by means of a SAS system (SAS Institute Inc.), and the concentration (IC50) of the test material which inhibited 50% of the activity of each tyrosine kinase was estimated.

In another test the target is T2, JAK3 tyrosine kinase (Homo sapiens, UniProt P52333).
T2 construct: purchased Carnabioscience Co
T2 sequence (P52333 1-1124): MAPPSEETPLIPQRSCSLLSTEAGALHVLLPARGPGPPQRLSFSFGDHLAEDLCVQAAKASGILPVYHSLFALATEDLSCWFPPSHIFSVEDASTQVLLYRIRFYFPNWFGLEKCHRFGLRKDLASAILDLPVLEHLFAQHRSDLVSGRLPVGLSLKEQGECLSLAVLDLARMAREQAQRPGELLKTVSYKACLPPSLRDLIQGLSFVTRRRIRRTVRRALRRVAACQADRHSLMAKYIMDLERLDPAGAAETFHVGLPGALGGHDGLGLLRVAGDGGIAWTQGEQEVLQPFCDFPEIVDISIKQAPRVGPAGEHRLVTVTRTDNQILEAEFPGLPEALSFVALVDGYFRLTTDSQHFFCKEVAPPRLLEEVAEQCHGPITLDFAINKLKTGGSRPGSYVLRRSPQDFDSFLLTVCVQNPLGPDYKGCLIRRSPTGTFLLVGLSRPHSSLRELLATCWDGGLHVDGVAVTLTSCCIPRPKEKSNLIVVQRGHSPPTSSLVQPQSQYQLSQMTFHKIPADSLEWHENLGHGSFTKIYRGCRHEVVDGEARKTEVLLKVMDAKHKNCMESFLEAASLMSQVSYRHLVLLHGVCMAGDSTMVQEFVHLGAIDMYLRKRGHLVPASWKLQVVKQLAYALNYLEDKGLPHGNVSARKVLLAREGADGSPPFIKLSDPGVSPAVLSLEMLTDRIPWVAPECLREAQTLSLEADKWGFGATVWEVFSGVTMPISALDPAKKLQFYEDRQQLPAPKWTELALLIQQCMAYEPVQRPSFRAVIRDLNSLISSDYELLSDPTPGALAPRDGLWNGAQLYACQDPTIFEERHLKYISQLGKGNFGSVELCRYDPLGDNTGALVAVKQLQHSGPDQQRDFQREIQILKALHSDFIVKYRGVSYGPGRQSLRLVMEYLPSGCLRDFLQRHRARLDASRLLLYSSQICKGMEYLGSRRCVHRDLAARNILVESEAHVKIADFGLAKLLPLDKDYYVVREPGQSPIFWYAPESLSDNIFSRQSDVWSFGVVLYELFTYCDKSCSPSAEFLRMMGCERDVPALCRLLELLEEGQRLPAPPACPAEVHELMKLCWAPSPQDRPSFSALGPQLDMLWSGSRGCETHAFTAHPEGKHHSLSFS
As to the kind of experiment: Test 1: inhibitory activity to JAK3 tyrosine kinase (ELISA). Type of test: biochemical. Conditions: 25 μM ATP in substrate solution, 30° C. for 1 hour, n=2. The protocol: Test 1: Test for inhibitory activity to JAK2 and JAK3 tyrosine kinase 1. […] The test material was dissolved in dimethylsulfoxide (DMSO) to be 10 mM, and further diluted with DMSO to be 100-fold concentrations for measurement (1000, 300, 100, 30, 10, 3, 1, 0.3, 0.1, 0.03, 0.01 μM). In addition, solutions diluted with an assay buffer up to 20 times were used as solutions of the test material. As a negative control, a solution of DMSO diluted 20 times with an assay buffer was used. […] 2. Measurement of the Activities of JAK2 and JAK3 Tyrosine Kinases The activity was determined by ELISA. […] The absorbance was measured by means of a micro-plate reader (BIO-RAD; Model 3550) at 450 nm. 3. Analysis of the Results of the Measurement The measured absorbance was subjected to a non-linear regression analysis by means of a SAS system (SAS Institute Inc.), and the concentration (IC50) of the test material which inhibited 50% of the activity of each tyrosine kinase was estimated.
For orientation: In an ELISA, binding on a coated surface is turned into a signal by an enzyme label.

T1 sequence (O60674 whole entry): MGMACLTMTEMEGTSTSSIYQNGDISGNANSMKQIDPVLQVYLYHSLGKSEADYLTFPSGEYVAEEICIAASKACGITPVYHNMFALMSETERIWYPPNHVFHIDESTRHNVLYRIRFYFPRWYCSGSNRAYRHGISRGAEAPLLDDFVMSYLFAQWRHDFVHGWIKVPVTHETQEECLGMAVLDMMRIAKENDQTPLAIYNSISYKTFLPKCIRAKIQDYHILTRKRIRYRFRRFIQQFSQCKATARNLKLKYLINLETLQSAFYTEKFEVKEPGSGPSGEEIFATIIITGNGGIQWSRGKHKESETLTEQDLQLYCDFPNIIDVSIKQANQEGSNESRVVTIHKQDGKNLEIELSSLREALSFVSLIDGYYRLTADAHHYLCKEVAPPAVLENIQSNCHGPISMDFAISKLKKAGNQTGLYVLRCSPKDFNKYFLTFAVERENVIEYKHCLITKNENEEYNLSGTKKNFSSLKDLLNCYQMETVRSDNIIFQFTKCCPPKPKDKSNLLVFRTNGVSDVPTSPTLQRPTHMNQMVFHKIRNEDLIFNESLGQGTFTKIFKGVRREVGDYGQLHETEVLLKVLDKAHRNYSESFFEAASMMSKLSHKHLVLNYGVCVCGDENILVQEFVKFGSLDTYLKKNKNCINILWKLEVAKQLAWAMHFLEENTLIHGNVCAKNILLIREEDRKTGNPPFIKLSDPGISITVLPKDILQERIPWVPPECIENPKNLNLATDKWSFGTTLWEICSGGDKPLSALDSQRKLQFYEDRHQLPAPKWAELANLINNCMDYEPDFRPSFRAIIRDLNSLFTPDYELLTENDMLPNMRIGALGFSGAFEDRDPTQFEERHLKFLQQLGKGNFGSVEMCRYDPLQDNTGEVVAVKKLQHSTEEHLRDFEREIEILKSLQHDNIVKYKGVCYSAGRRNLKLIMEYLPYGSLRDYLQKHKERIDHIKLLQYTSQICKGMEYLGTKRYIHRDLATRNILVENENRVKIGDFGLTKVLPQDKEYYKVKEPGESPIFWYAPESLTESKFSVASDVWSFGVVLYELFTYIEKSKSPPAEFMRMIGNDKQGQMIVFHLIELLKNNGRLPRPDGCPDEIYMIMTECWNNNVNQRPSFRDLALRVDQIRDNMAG

“4-{2-[(1S)-1-(4-Fluorophenyl)ethylamino]-6-(pyrazin-2-ylamino)pyrimidin-4-yl}-1λ^6,4-thiomorpholin-1,1-dione [Example 226]”: the IC50 on JAK2 tyrosine kinase was 1.1 nM; against JAK3 tyrosine kinase, 24 nM. The matching figures for `C[C@H](Nc1nc(Nc2cnccn2)cc(N2CC(F)(F)C2)n1)c1ccc(F)cc1` [Example 3, (S)-6-(3,3-Difluoroazetidin-1-yl)-N^2-[1-(4-fluorophenyl)ethyl]-N^4-(pyrazin-2-yl)pyrimidine-2,4-diamine hydrochloride]: 1.2 nM and 130 nM. For `C[C@H](Nc1cc(-c2cccnc2)cc(Nc2cnccn2)n1)c1ccc(F)cc1` [Example 5, (S)—N^2′-[1-(4-Fluorophenyl)ethyl]-N^6′-(pyrazin-2-yl)-3,4′-bipyridine-2′,6′-diamine hydrochloride], the IC50 at JAK2 tyrosine kinase is 0.62 nM; against JAK3 tyrosine kinase it was 62 nM.

Turning to `COc1ccc(-c2cc(Nc3cnccn3)nc(N[C@@H](C)c3ccc(F)cc3)c2)cn1` [Example 6, (S)—N^2′-[1-(4-Fluorophenyl)ethyl]-6-methoxy-N^6′-(pyrazin-2-yl)-3,4′-bipyridine-2′,6′-diamine], the figures for the concentration for half-maximal inhibition (IC50) against JAK2 tyrosine kinase and at JAK3 tyrosine kinase were 5.7 nM and 500 nM, respectively.

`C[C@H](Nc1cc(-c2cnco2)cc(Nc2cnccn2)n1)c1ccc(F)cc1` [Example 8, (S)—N^2-[1-(4-Fluorophenyl)ethyl]-4-(oxazol-5-yl)-N^6-(pyrazin-2-yl)pyridine-2,6-diamine]: the figures for the IC50 against JAK2 tyrosine kinase and on JAK3 tyrosine kinase were 1.1 nM and 82 nM, respectively. On to `C[C@H](Nc1cc(C(=O)N2CCCC2)cc(Nc2cnccn2)n1)c1ccc(F)cc1` [Example 154, (S)-{2-[1-(4-Fluorophenyl)ethylamino]-6-(pyrazin-2-ylamino)pyridin-4-yl}(pyrrolidin-1-yl)methanone], for which the IC50 on JAK3 tyrosine kinase is 340 nM. On the same count and under the same terms, the figure for `CC(C)NC(=O)c1cc(Nc2cnccn2)nc(N[C@@H](C)c2ccc(F)cc2)c1` [Example 155, (S)-2-[1-(4-Fluorophenyl)ethylamino]-N-isopropyl-6-(pyrazin-2-ylamino)isonicotinamide] is 390 nM; for `C[C@H](Nc1nc(Nc2cnccn2)cc(N2CC[C@H]2C(N)=O)n1)c1ccc(F)cc1` [Example 156, (S)-1-{2-[(S)-1-(4-Fluorophenyl)ethylamino]-6-(pyrazin-2-ylamino)pyrimidin-4-yl}azetidine-2-carboxamide] it is 580 nM; for `C[C@H](Nc1cc(OC2CCOCC2)cc(Nc2cnccn2)n1)c1ccc(F)cc1` [Example 157, (S)—N^2-[1-(4-Fluorophenyl)ethyl]-N^6-(pyrazin-2-yl)-4-(tetrahydro-2H-pyran-4-yloxy)pyridine-2,6-diamine hydrochloride] it is 150 nM. Same read-out and setting: the figure for `C[C@H](Nc1nc(Nc2cnccn2)cc(N2CC(C(N)=O)C2)n1)c1ccc(F)cc1` [Example 158, (S)-1-{2-[1-(4-Fluorophenyl)ethylamino]-6-(pyrazin-2-ylamino)pyrimidin-4-yl}azetidine-3-carboxamide] is 39 nM.

On JAK3 tyrosine kinase, `C[C@H](Nc1cc(C(=O)NCCO)cc(Nc2cnccn2)n1)c1ccc(F)cc1` [Example 159, (S)-2-[1-(4-Fluorophenyl)ethylamino]-N-(2-hydroxyethyl)-6-(pyrazin-2-ylamino)isonicotinamide] had an IC50 of 170 nM.

In the case of `CNC(=O)c1cc(Nc2cnccn2)nc(N[C@@H](C)c2ccc(F)cc2)c1` [Example 160, (S)-2-[1-(4-Fluorophenyl)ethylamino]-N-methyl-6-(pyrazin-2-ylamino)isonicotinamide], it took 100 nM to reach half-maximal inhibition against JAK3 tyrosine kinase (IC50). On JAK3 tyrosine kinase, `C[C@H](Nc1cc(C(=O)N2CCOCC2)cc(Nc2cnccn2)n1)c1ccc(F)cc1` [Example 161, (S)-{2-[1-(4-Fluorophenyl)ethylamino]-6-(pyrazin-2-ylamino)pyridin-4-yl}(morpholino)methanone] displayed an IC50 of 230 nM. Against the preceding molecule, the IC50 is about 2.3-fold higher.

Molecule `C[C@H](Nc1cc(C(=O)NCc2ccccc2)cc(Nc2cnccn2)n1)c1ccc(F)cc1` [Example 162, (S)—N-Benzyl-2-[1-(4-fluorophenyl)ethylamino]-6-(pyrazin-2-ylamino)isonicotinamide hydrochloride] gave an IC50 against JAK3 tyrosine kinase of 370 nM. This IC50 is about 1.6-fold higher than that of the molecule before. For the molecule `C[C@H](Nc1cc(C(=O)NC2CC2)cc(Nc2cnccn2)n1)c1ccc(F)cc1` [Example 163, (S)—N-Cyclopropyl-2-[1-(4-fluorophenyl)ethylamino]-6-(pyrazin-2-ylamino)isonicotinamide], at JAK3 tyrosine kinase, the IC50 is 170 nM. With `C[C@H](Nc1cc(C(=O)N2CCN(C)CC2)cc(Nc2cnccn2)n1)c1ccc(F)cc1` [Example 164, (S)-{2-[1-(4-Fluorophenyl)ethylamino]-6-(pyrazin-2-ylamino)pyridin-4-yl}(4-methylpiperazin-1-yl)methanone hydrochloride], the IC50 on JAK3 tyrosine kinase came to 470 nM.

`COCCNC(=O)c1cc(Nc2cnccn2)nc(N[C@@H](C)c2ccc(F)cc2)c1` [Example 165, (S)-2-[1-(4-Fluorophenyl)ethylamino]-N-(2-methoxyethyl)-6-(pyrazin-2-ylamino)isonicotinamide] had an IC50 on JAK3 tyrosine kinase of 360 nM. This IC50 and that of the molecule before are within 1.5-fold of each other. On JAK2 tyrosine kinase, `C[C@H](Nc1nc(Nc2cnccn2)cc(N2CC(C(=O)N(C)C)C2)n1)c1ccc(F)cc1` [Example 176, (S)-1-{2-[1-(4-Fluorophenyl)ethylamino]-6-(pyrazin-2-ylamino)pyrimidin-4-yl}-N,N-dimethylazetidin-3-carboxamide] showed an IC50 of 0.96 nM. Molecule `CC(C)C1(O)CN(c2cc(Nc3cnccn3)nc(N[C@@H](C)c3ccc(F)cc3)n2)C1` [Example 201, (S)-1-{2-[1-(4-Fluorophenyl)ethylamino]-6-(pyrazin-2-ylamino)pyrimidin-4-yl}-3-isopropylazetidin-3-ol hydrochloride] registered an IC50 against JAK2 tyrosine kinase of 0.41 nM.
